Assay results taken from patent publication US20230025807A1 (priority 2019, published 2023).

Biological target: T1, Human CD38 (Homo sapiens, UniProt P28907)
T1 construct: purchased BPS Bioscience 79287
T1 sequence (P28907 1-300): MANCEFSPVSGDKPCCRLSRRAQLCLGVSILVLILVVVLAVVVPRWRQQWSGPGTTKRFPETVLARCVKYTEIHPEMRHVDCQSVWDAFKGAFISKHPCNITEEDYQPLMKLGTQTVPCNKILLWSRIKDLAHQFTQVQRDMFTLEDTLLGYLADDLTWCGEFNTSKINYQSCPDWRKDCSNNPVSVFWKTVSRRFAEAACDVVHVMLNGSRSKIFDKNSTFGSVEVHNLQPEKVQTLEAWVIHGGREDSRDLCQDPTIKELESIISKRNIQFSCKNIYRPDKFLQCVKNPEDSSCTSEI
Assay: biochemical
Method: CD38 hydrolase buffer (4×) was thawed on ice and 1×CD38 hydrolase buffer was prepared by diluting 4×CD38 hydrolase buffer with water. CD38 hydrolase enzyme was diluted to […] with 1×CD38 hydrolase buffer (10 ng/well). Master mix was prepared by mixing equal volumes of water and CD38 hydrolase buffer (4×) and 10 μl of the mix was added to all the wells. Following master mix addition, 10 μl of the inhibitors and 20 μl of CD38 hydrolase enzyme were added to the wells. For wells designated blank, 10 μl and 20 μl of 1×CD38 hydrolase buffer was added respectively in place of CD38 enzyme and inhibitors. The plate was covered and incubated 30 min at room temperature with slow shaking at 400 rpm. After 30 min incubation, the plate was removed and 10 μl of diluted ε-NAD substrate was added to all the wells. The plate is incubated for 10 min, spun at 1200 rpm for 30 secs to remove bubbles and read in Tecan Spark using a fluorometer setting of excitation 300 nm and emission 410 nm. The reading for the blank was subtracted from all the values. IC50 for the test compounds were determined by using Graphpad prism software v7.0.

SMILES: COCCO[C@H]1CC[C@H](NC(=O)c2cc(-c3cncs3)cc3[nH]ccc23)C1 (racemic) [Example 34, N-(Trans-3-(2-methoxyethoxy)cyclopentyl)-6-(thiazol-5-yl)-1H-indole-4-carboxamide]
- IC50: 265 nM
